For 12 molecules, TGI results are on record in PubChem BioAssay (NCI).

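Dose response: 5 concentrations. Exposure: 48 h. Format: 96-well plates. Endpoint: linear interpolation; highest concentration if not reached. Definition used: TGI = concentration required for complete inhibition of growth.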

Some test systems named below: NCI-H460 lung; 786-0 renal; MDA-N; SK-MEL-5 melanoma; HS 578T breast; TK-10 renal; UO-31 renal; M14 melanoma; BT-549 breast; CAKI-1 renal; SK-MEL-2 melanoma; UACC-62 melanoma; ACHN renal; KM12 colon; IGROV1 ovarian; MDA-MB-435; RPMI-8226 leukemia; SF-268 CNS; MALME-3M melanoma; SN12C renal.
Assay in all cases: NCI-60 cell line screen, 48 h

Regarding `COc1ccc(-c2csc(Cc3nc4c(Br)cc(Br)cc4c(=O)n3-c3ccc(OC)cc3)n2)cc1`, the TGI in the experiment on NCI-H460 lung was greater than 100 µM; in the experiment with 786-0 renal it was greater than 100 µM; in the experiment with MDA-N it was greater than 100 µM; in the experiment on SK-MEL-5 melanoma it was 89.3 µM; in the experiment with HS 578T breast, greater than 100 µM; with TK-10 renal, greater than 100 µM. In addition, the TGI in the experiment with UO-31 renal is greater than 100 µM; in the experiment on M14 melanoma, 63.1 µM; in the experiment on BT-549 breast, greater than 100 µM; in the experiment on CAKI-1 renal it was greater than 100 µM; with SK-MEL-2 melanoma, greater than 100 µM; with UACC-62 melanoma it was greater than 100 µM. Besides, the TGI in the experiment with ACHN renal, with KM12 colon, in the experiment on IGROV1 ovarian and in the experiment with MDA-MB-435 was greater than 100 µM throughout.
Turning to `CCOC(=O)OC1C(Br)C2CCC1(C)C2(C)C` (stereo not given), the TGI turned out to be 20.7 µM with RPMI-8226 leukemia; 29.6 µM with SF-268 CNS; 16.6 µM in the experiment with NCI-H460 lung; 28.8 µM with 786-0 renal; 31.3 µM in the experiment with MALME-3M melanoma; 28.5 µM in the experiment with MDA-N. Further, the TGI in the experiment with SK-MEL-5 melanoma was 27.6 µM; in the experiment on HS 578T breast it was 32.5 µM; with TK-10 renal it was 27.8 µM; in the experiment with UO-31 renal, 24.6 µM; in the experiment with M14 melanoma it was 25.6 µM; in the experiment with BT-549 breast, 31.3 µM. In addition, the TGI with SN12C renal stood at 28.1 µM; in the experiment with UACC-62 melanoma, 32.1 µM; in the experiment with ACHN renal it was 29.2 µM; in the experiment with KM12 colon, 28.4 µM; in the experiment on IGROV1 ovarian it was 32.8 µM; with MDA-MB-435, 23.6 µM.
On to `Cc1cc(S(=O)(=O)Nc2nnc3ccccn23)c(S)cc1Cl`, for which the TGI in the experiment on RPMI-8226 leukemia, in the experiment on NCI-H460 lung, in the experiment with 786-0 renal, in the experiment with MALME-3M melanoma, in the experiment with MDA-N and in the experiment on SK-MEL-5 melanoma was greater than 100 µM in each case. Besides, the TGI in the experiment with HS 578T breast, in the experiment on TK-10 renal, in the experiment with UO-31 renal, in the experiment with M14 melanoma, in the experiment on BT-549 breast and in the experiment on SN12C renal was greater than 100 µM each time. Also, the TGI with SK-MEL-2 melanoma, with UACC-62 melanoma, in the experiment with ACHN renal, in the experiment with KM12 colon, in the experiment on IGROV1 ovarian and in the experiment with MDA-MB-435 was greater than 100 µM each time.
Turning to `O=C(COc1ccccc1)N(C(=O)N1CCN(c2ccccc2)CC1)S(=O)(=O)c1ccccc1`, the TGI in the experiment with SF-268 CNS, with NCI-H460 lung, in the experiment with 786-0 renal, in the experiment on MALME-3M melanoma, in the experiment with MDA-N and with SK-MEL-5 melanoma was greater than 100 µM in each case. Moreover, the TGI in the experiment with HS 578T breast, in the experiment with TK-10 renal, in the experiment on UO-31 renal, in the experiment on M14 melanoma, in the experiment on BT-549 breast and with CAKI-1 renal was greater than 100 µM in each case. Also, the TGI with SN12C renal, in the experiment on SK-MEL-2 melanoma, with UACC-62 melanoma, with ACHN renal, with KM12 colon and in the experiment on MDA-MB-435 was greater than 100 µM each time.
For the molecule `O=C1c2ccccc2C(=O)c2c(NC(=O)C3CC3)ccc(NC(=O)C3CC3)c21`, the TGI in the experiment on RPMI-8226 leukemia, in the experiment with NCI-H460 lung, in the experiment with 786-0 renal, with MALME-3M melanoma, in the experiment on MDA-N and with SK-MEL-5 melanoma was greater than 100 µM throughout. For the same molecule, the TGI in the experiment on HS 578T breast, in the experiment with TK-10 renal, with UO-31 renal, in the experiment on BT-549 breast, with SN12C renal and in the experiment with SK-MEL-2 melanoma was greater than 100 µM each time. Moreover, the TGI with UACC-62 melanoma, in the experiment on ACHN renal, in the experiment on KM12 colon, with IGROV1 ovarian and with MDA-MB-435 was greater than 100 µM each time.
For the molecule `CCC1(CC)N=C(C(F)(F)F)c2cc(C(=O)C(F)(F)F)c3ccccc3c2N1`, the TGI with SF-268 CNS worked out at 27 µM; in the experiment with NCI-H460 lung, 24.1 µM; in the experiment with 786-0 renal, 13.7 µM; in the experiment with MALME-3M melanoma it was 57.3 µM; in the experiment with MDA-N, 15.7 µM; with SK-MEL-5 melanoma it was 11.4 µM. The TGI in the experiment with HS 578T breast is 32.2 µM; with TK-10 renal, 61.3 µM; with UO-31 renal, 16.9 µM; in the experiment with M14 melanoma, 25.3 µM; in the experiment with BT-549 breast, 29 µM; with CAKI-1 renal, greater than 100 µM. The TGI in the experiment on SN12C renal is 13.7 µM; in the experiment on SK-MEL-2 melanoma it was 10.4 µM; in the experiment on UACC-62 melanoma, 13.3 µM; in the experiment with ACHN renal, greater than 100 µM; in the experiment on KM12 colon, greater than 100 µM; with IGROV1 ovarian, 23 µM. In addition, the TGI in the experiment with MDA-MB-435 is greater than 100 µM.
For the molecule `COC(=O)c1ccc(C)cc1CC1Cc2cccc(C)c2C1=O` (stereo not given), the TGI with SF-268 CNS was greater than 100 µM; with NCI-H460 lung, 22.7 µM; in the experiment with 786-0 renal, greater than 100 µM; in the experiment with MALME-3M melanoma it was 31.3 µM; with MDA-N, 3.86 µM; in the experiment with SK-MEL-5 melanoma, 11.4 µM. For the same molecule, the TGI in the experiment on HS 578T breast is 39.9 µM; with TK-10 renal it was 48.6 µM; in the experiment on UO-31 renal it was 56.7 µM; with M14 melanoma, 23.2 µM; with BT-549 breast, 87.6 µM; with CAKI-1 renal, greater than 100 µM. The TGI is 78.2 µM in the experiment on SN12C renal; 17.1 µM in the experiment with SK-MEL-2 melanoma; 49.6 µM in the experiment with UACC-62 melanoma; 97.6 µM in the experiment with ACHN renal; 23 µM in the experiment on KM12 colon; greater than 100 µM in the experiment with IGROV1 ovarian. The same molecule had a TGI with MDA-MB-435 of 3.34 µM.
As to `CCNC1=C(NC(=O)c2ccccc2)C(=O)c2ccccc2C1=O`, the TGI in the experiment with RPMI-8226 leukemia was greater than 100 µM; in the experiment on NCI-H460 lung, greater than 100 µM; in the experiment with 786-0 renal, greater than 100 µM; in the experiment on MALME-3M melanoma, 43 µM; in the experiment on MDA-N it was 24.1 µM; in the experiment on HS 578T breast, greater than 100 µM. The TGI in the experiment on TK-10 renal, in the experiment on M14 melanoma, in the experiment on BT-549 breast, in the experiment with SN12C renal, with UACC-62 melanoma and in the experiment with KM12 colon was greater than 100 µM throughout. The TGI in the experiment on IGROV1 ovarian was greater than 100 µM; in the experiment on MDA-MB-435, 19.4 µM.
Take `COc1ccc(CCNC(=O)c2ccccc2C2c3ccc(OCc4ccccc4)cc3Oc3cc(OCc4ccccc4)ccc32)cc1OC`: the TGI in the experiment on RPMI-8226 leukemia, with SF-268 CNS, with 786-0 renal, with MALME-3M melanoma, in the experiment with MDA-N and in the experiment with SK-MEL-5 melanoma was greater than 100 µM throughout. Further, the TGI in the experiment on TK-10 renal, in the experiment with UO-31 renal, in the experiment on M14 melanoma, in the experiment on BT-549 breast, in the experiment with CAKI-1 renal and in the experiment on SN12C renal was greater than 100 µM throughout. For the same molecule, the TGI with SK-MEL-2 melanoma, in the experiment with UACC-62 melanoma, in the experiment with ACHN renal, in the experiment with KM12 colon, in the experiment on IGROV1 ovarian and with MDA-MB-435 was greater than 100 µM throughout.
As to `Nc1cc2ncnn2c(SCC(=O)N/N=C/C(Br)=C\c2ccccc2)n1`, the TGI in the experiment on RPMI-8226 leukemia turned out to be 50.1 µM; in the experiment with NCI-H460 lung, 53.5 µM; in the experiment with 786-0 renal it was 36.9 µM; with MALME-3M melanoma it was 28.3 µM; in the experiment on MDA-N it was 31.6 µM; in the experiment with SK-MEL-5 melanoma, 26.2 µM. Moreover, the TGI in the experiment on HS 578T breast is greater than 100 µM; in the experiment with TK-10 renal it was 72.3 µM; in the experiment with UO-31 renal it was 32 µM; in the experiment on BT-549 breast, 44.1 µM; with CAKI-1 renal it was 37.2 µM; in the experiment with SN12C renal, 48.4 µM. Further, the TGI in the experiment on ACHN renal is 62.7 µM; in the experiment with KM12 colon it was 52.7 µM; with IGROV1 ovarian it was 24.6 µM; in the experiment with MDA-MB-435, 30.9 µM.
In the case of `COC(=O)CN1C(=O)C2(C(=O)OC)OC1(c1ccc([N+](=O)[O-])cc1)C1C(=O)N(c3ccccc3)C(=O)C12` (stereo not given), the TGI in the experiment with SF-268 CNS, with 786-0 renal, in the experiment with MALME-3M melanoma, with MDA-N, in the experiment on SK-MEL-5 melanoma and in the experiment with HS 578T breast was greater than 100 µM in each case. Moreover, the TGI in the experiment with TK-10 renal, with UO-31 renal, with M14 melanoma, with BT-549 breast, in the experiment on CAKI-1 renal and with SN12C renal was greater than 100 µM throughout. The TGI in the experiment on SK-MEL-2 melanoma, in the experiment with UACC-62 melanoma, in the experiment on ACHN renal, with KM12 colon, in the experiment with IGROV1 ovarian and in the experiment on MDA-MB-435 was greater than 100 µM each time.
On to `CN(C)C(=S)C(Cl)(c1ccccc1)c1ccccc1`, for which the TGI with SF-268 CNS, with NCI-H460 lung, with 786-0 renal, with MALME-3M melanoma, in the experiment with MDA-N and in the experiment with SK-MEL-5 melanoma was greater than 100 µM in each case. In addition, the TGI in the experiment on HS 578T breast, in the experiment on TK-10 renal, with UO-31 renal, in the experiment with M14 melanoma, with BT-549 breast and in the experiment with CAKI-1 renal was greater than 100 µM in each case. Also, the TGI with SN12C renal was greater than 100 µM; with SK-MEL-2 melanoma it was 66.8 µM; in the experiment on UACC-62 melanoma it was greater than 100 µM; with ACHN renal it was greater than 100 µM; in the experiment with KM12 colon it was greater than 100 µM; in the experiment on IGROV1 ovarian, greater than 100 µM. This molecule also showed a TGI with MDA-MB-435 greater than 100 µM.
